How the values were obtained:
[1] = system: synthetic cyn promoter (pCyn-v2-GFP) in E. coli BW25113-Wt
E. coli cells = details: LB media, 37° C., OD600
[2] = system: cyn promoter/operator regulated by cynR (pCyn-v1-GFP); experiment: GFP expression from pCyn-v1-GFP (native cyn promoter) induced with cyanate or azide, flow cytometry and bulk lysate fluorescence; assay type: cell-based, E. coli; details: 1 mM inducer
[3] = system: lac promoter in BL21 cells (pEC-GFP); experiment: IPTG induction of GFP from lac promoter (pEC-GFP) in BL21 cells; assay type: cell-based, E. coli; details: 0.01 mM and 0.1 mM IPTG, 24 hours

## [N-]=[N+]=[N-] [sodium azide]
[1]
  azide concentration until which GFP expression increased: 1 mM
  detection limit of the synthetic promoter for azide: > 10 µM
E. coli cells
  azide amount showing dramatic influence on the growth of the cells: > 5 mM

## N#CO [sodium cyanate]
[2]; BW25113 wildtype, 19 hours, flow cytometry
  GFP fluorescence of induced cells compared to uninduced control: did not result in any GFP expression
[2]; ΔcynS strain (BW25113-sCB1)
  GFP expression of induced cells: recovered the GFP expression

## CC(C)S[C@@H]1O[C@H](CO)[C@H](O)[C@H](O)[C@H]1O [IPTG]
[3]
  GFP expression at lower inducer concentrations over time: GFP expression increased with time and reached maximum after 24 hours

From US12655461B2 (priority 2020, dated 2026)
